Test results as given in patent publication US8569264B2, “Antibacterial 4,5-substituted aminoglycoside analogs having multiple substituents” (ISIS Pharmaceuticals, Inc., priority 2005, dated 2013).
Converted amounts (≈) assume the structure as drawn.

Key:
Assay type in all cases: cell-based
[1] = tested on: S. aureus ATCC 13709; assay: MIC, S. aureus ATCC 13709; settings: for MIC: Staphylococcus aureus
Experimental: (§1) The MIC assays are carried out in 150 μL volume in duplicate in 96-well clear flat-bottom plates. The bacterial suspension from an overnight culture growth in appropriate medium is added to a solution of test compound in 4% DMSO in water. Final bacterial inoculum is approximately 10^5-10^6 CFU/well. […] Both ampicillin and tetracycline are used as antibiotic-positive controls in each screening assay for S. pyogenes, E. coli imp-, E. coli, S. aureus, E. faecalis, K. pneumoniae and P. vulgaris. Ciprofloxacin is used as an antibiotic positive control in each screening assay for P. aeruginosa.
(§2) The following compounds were prepared using methods illustrated in the previous examples. The compounds were also examined in standard bacterial assays against E. Coli, S. Aureus, P. aurginosa, K. pneumoniae, P. vulgaris, and A. baumannii to determine activities. Each of the bacterial cultures that are available from ATCC (www.atcc.org) is identified by its ATCC number. A. baumannii is gentamicin sensitive Acinetobacter baumannii #2 from Walter Reed.

[2] = tested on: E. coli ATCC 25922; assay: MIC, E. coli ATCC 25922; settings: for MIC: Escherichia coli
Experimental: as §1, §2

[3] = tested on: P. vulgaris ATCC 8427; assay: MIC, P. vulgaris ATCC 8427; settings: for MIC: Proteus vulgaris
Experimental: as §1, §2

[4] = tested on: P. aurginosa ATCC 25416; assay: MIC, P. aurginosa ATCC 25416
Experimental: as §1, §2

[5] = tested on: P. aurginosa ATCC 29248; assay: MIC, P. aurginosa ATCC 29248
Experimental: as §1, §2

[6] = tested on: gentamicin sensitive Acinetobacter baumannii #2 from Walter Reed; assay: MIC, A. baumannii WReed 2; settings: for MIC: Acinetobacter baumannii
Experimental: as §1, §2

[7] = tested on: K. pneumoniae ATCC 10031; assay: MIC, K. pneumoniae ATCC 10031; settings: for MIC: Klebsiella pneumoniae
Experimental: as §1, §2

[8] = tested on: S. Aureus; assay: MIC, S. Aureus; settings: Example 109
Procedure, shortened: (§3)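 Broth microdilution in duplicate, 150 μL: overnight-culture bacteria were added to compound in 4% DMSO in water. Final inoculum was about 10^5–10^6 CFU/well.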

[9] = tested on: E. Coli; assay: MIC, E. Coli; settings: Example 109
Procedure, shortened: as §3

NCC1OC(OC2C(CO)OC(OC3C(O)C(N)CC(N)C3OC3OC(CNCCc4cccc(C(F)(F)F)c4)C(O)C(O)C3N)C2O)C(N)C(O)C1O (centres unmarked) [Compound 15u]
MIC S. aureus ATCC 13709 ([1]; Example 111): 0.3 to 0.6 µM
MIC E. coli ATCC 25922 ([2]; Example 111): 1.3 to 2.5 µM
MIC P. vulgaris ATCC 8427 ([3]; Example 111): >40 µM
MIC P. aurginosa ATCC 25416 ([4]; Example 111): >40 µM
MIC P. aurginosa ATCC 29248 ([5]; Example 111): >40 µM
MIC A. baumannii WReed 2 ([6]; Example 111): 10 to 20 µM
MIC K. pneumoniae ATCC 10031 ([7]; Example 111): 0.6 to 1.3 µM

NCC1OC(OC2C(CO)OC(OC3C(O)C(N)CC(N)C3OC3OC(CNCCCc4ccccc4)C(O)C(O)C3N)C2O)C(N)C(O)C1O (centres unmarked) [Compound 15l]
MIC S. aureus ATCC 13709 ([1]; Example 111): 0.2 to 0.3 µM
MIC S. Aureus [8]: 0.3 to 0.6 µM
MIC E. coli ATCC 25922 ([2]; Example 111): 1.3 to 2.5 µM
MIC E. Coli. [9]: 0.6 to 1.2 µM
MIC P. vulgaris ATCC 8427 ([3]; Example 111): >40 µM
MIC P. aurginosa ATCC 25416 ([4]; Example 111): >40 µM
MIC P. aurginosa ATCC 29248 ([5]; Example 111): >40 µM
MIC A. baumannii WReed 2 ([6]; Example 111): 10 to 20 µM
MIC K. pneumoniae ATCC 10031 ([7]; Example 111): 0.6 to 1.3 µM

NCC[C@H](O)C(=O)N[C@@H]1C[C@H](N)[C@@H](O[C@H]2O[C@H](CO)[C@@H](O)[C@H](O)[C@H]2N)[C@H](O[C@@H]2O[C@H](CO)[C@@H](O[C@H]3O[C@@H](CN)[C@@H](O)[C@H](O)[C@H]3N)[C@H]2OCCNCCc2ccccc2)[C@H]1O [Compound 46a, N-1-haba-2″-O-phenylethylaminoethyl paromomycin]
MIC ([1]; ATCC13709, Example 110): 0.6 to 1.2 µM (≈ 0.518 to 1.04 µg/mL)
MIC ([1]; ATCC13709, Example 111): 0.2 to 0.3 µM (≈ 0.173 to 0.259 µg/mL)
MIC ([2]; ATCC25922, Example 110): 0.6 to 1.3 µM (≈ 0.518 to 1.12 µg/mL)
MIC ([2]; ATCC25922, Example 111): 1.3 to 2.5 µM (≈ 1.12 to 2.16 µg/mL)
MIC ([3]; ATCC8427, Example 110): 0.6 to 1.3 µM (≈ 0.518 to 1.12 µg/mL)
MIC ([3]; ATCC8427, Example 111): 5 to 10 µM (≈ 4.32 to 8.64 µg/mL)
MIC ([4]; Example 110): 0.6 to 1.3 µM (≈ 0.518 to 1.12 µg/mL)
MIC ([4]; Example 111): 10 to 20 µM (≈ 8.64 to 17.3 µg/mL)
MIC ([5]; Example 110): 1.3 to 2.5 µM (≈ 1.12 to 2.16 µg/mL)
MIC ([5]; Example 111): 5 to 10 µM (≈ 4.32 to 8.64 µg/mL)
MIC ([6]; Example 110): 0.6 to 1.3 µM (≈ 0.518 to 1.12 µg/mL)
MIC ([6]; Example 111): 10 to 20 µM (≈ 8.64 to 17.3 µg/mL)
MIC ([7]; ATCC10031, Example 110): < 0.6 µM
MIC ([7]; ATCC10031, Example 111): 0.3 to 0.6 µM (≈ 0.259 to 0.518 µg/mL)

NCCCNCCO[C@H]1[C@H](O[C@@H]2[C@@H](O)[C@H](NC(=O)[C@@H](O)CCN)C[C@H](N)[C@H]2O[C@H]2O[C@H](CO)[C@@H](O)[C@H](O)[C@H]2N)O[C@H](CO)[C@H]1O[C@H]1O[C@@H](CN)[C@@H](O)[C@H](O)[C@H]1N [Compound 46b, N-1-haba-2″-O-(1,3-diamino)ethyl paromomycin]
MIC ([1]; ATCC13709, Example 110): 1.2 to 2.5 µM (≈ 0.98 to 2.04 µg/mL)
MIC ([2]; ATCC25922, Example 110): 5 to 10 µM (≈ 4.08 to 8.17 µg/mL)
MIC ([3]; ATCC8427, Example 110): 5 to 10 µM (≈ 4.08 to 8.17 µg/mL)
MIC ([4]; Example 110): 1.3 to 2.5 µM (≈ 1.06 to 2.04 µg/mL)
MIC ([5]; Example 110): 5 to 10 µM (≈ 4.08 to 8.17 µg/mL)
MIC ([6]; Example 110): 2.5 to 5 µM (≈ 2.04 to 4.08 µg/mL)
MIC ([7]; ATCC10031, Example 110): 1.3 to 2.5 µM (≈ 1.06 to 2.04 µg/mL)

NCC1OC(OC2C(CO)OC(OC3C(O)C(N)CC(N)C3OC3OC(CO)C(O)C(O)C3N)C2OCCNCCN2C(=O)c3cccc4cccc(c34)C2=O)C(N)C(O)C1O (centres unmarked) [Compound 9ae]
MIC S. aureus ATCC 13709 ([1]; Example 110): 10 to 20 µM
MIC E. coli ATCC 25922 ([2]; Example 110): >40 µM
MIC P. vulgaris ATCC 8427 ([3]; Example 110): 20 to 40 µM
MIC P. aurginosa ATCC 25416 ([4]; Example 110): 5 to 10 µM
MIC P. aurginosa ATCC 29248 ([5]; Example 110): >40 µM
MIC A. baumannii WReed 2 ([6]; Example 110): 20 to 40 µM
MIC K. pneumoniae ATCC 10031 ([7]; Example 110): 5 to 10 µM
